Structures can show the parent of a compound that is named as a salt.
Legend:
Assay type in all cases: physicochemical
[1] = Residual amounts of fat-soluble and water-soluble pigments (HPLC); conditions: aconitate/citrate products, Table 4
Protocol: 7. Residual amounts of fat-soluble pigments and water-soluble pigments: • a high-performance liquid chromatograph (HPLC) was used, and the instrument sensitivity and stability of the detector should comply with the provisions of GB/T 16631-2008. Chromatographic column: C18 column; injector: 10 µL micro-syringe; solvent: acetonitrile (HPLC grade); acquisition time: 15 min; mobile phase: 80% acetonitrile (HPLC grade) and 20% deionized water; injection volume: 1 µL; wavelength: 230 nm.
Test: the instrument was adjusted according to the above provisions. After the baseline was stable, 0.2 µL of the sample was injected using a micro-syringe, and the integrator or chromatographic workstation was started at the same time. A pigment concentration-integral area standard curve was established by testing the integral areas of pigments with different concentrations. When the pigment content was measured, the corresponding pigment integral area was automatically given by the instrument, and the pigment concentration was obtained by comparing with the standard curve. The ratio of the pigment concentration to the sample concentration is the pigment content.

[2] = Chromaticity (platinum-cobalt colorimetry); conditions: aconitate/citrate products, Table 4; colour comparison at 25°C
Protocol: 3. Chromaticity: preparation of 500# platinum-cobalt colorimetric standard stock solution: 1.2450 g of potassium chloroplatinate and 1.0000 g of cobalt chloride were weighed, with an accuracy of 0.0002 g, the mixture was dissolved in 100 mL of hydrochloric acid, and then diluted to 1000 mL with distilled water. This solution is just the 500# colorimetric standard comparison solution.
Preparation of colorimetric standards below 500#: different amounts of the 500# stock solution was prepared, and diluted with distilled water to the volume of a colorimetric tube to prepare colorimetric standard solutions of any number. The calculation formula is as follows: V = (N×V1)/500 [formula]
In the formula, V is the volume of the 500# standard stock solution taken to prepare the N# colorimetric standard solution, in mL; V1 is the volume of the colorimetric tube used, in mL; and N is the number of the colorimetric standard solution to be prepared.
Color comparison determination was performed at 25°C.

[3] = Water content (Karl Fischer moisture meter); conditions: aconitate/citrate products, Table 4
Excerpt: 6. Water content: a Karl Fischer moisture meter is used to test the water content (retained to two decimal places).

[4] = Acid value (KOH titration); conditions: aconitate/citrate products, Table 4
Protocol: The aconitates and citrates prepared in the above examples and comparative examples were tested for acid value, purity, chromaticity, yield, triester conversion rate, and water content. […] The mixture was neutralized with 0.02 mol·L^-1 potassium hydroxide aqueous solution until a faint pink color appears, and the consumed volume Vo was recorded. 1 g of the sample (accurate to 0.01 g) was weighed using a ground-neck conical flask, then one portion of the above neutralized solution was added. After the sample was completely dissolved, the sample was titrated with 0.02 mol·L^-1 potassium hydroxide-ethanol standard titration solution (the titration should be completed within 30 seconds) until a faint pink color appeared and persisted for 5 seconds without fading, which was considered as an end point. The consumed volume V was recorded. […] Chromatographic column: C18 column; injector: 10 µL micro-syringe; solvent: acetonitrile (HPLC grade); acquisition time: 15 min; mobile phase: 80% acetonitrile (HPLC grade) and 20% deionized water; injection volume: 1 µL; wavelength: 230 nm.

[5] = Tensile properties (GB/T 1040-2006): tensile modulus at 100%, elongation at break, elastic modulus; conditions: PVC plastic with 35 parts plasticizer; 50 mm/min, 25°C
Protocol: (§1) The aconitates and tributyl citrate prepared in the above examples and comparative examples were added as plasticizers to PVC resin to obtain PVC plastics. The PVC plastics include 100 parts of PVC resin, 35 parts of plasticizer, 2 parts of oxidized polyethylene wax, and 5 parts of octyltin maleate. The above raw materials were mixed and prepared using the same mixing process to obtain finished PVC products. The performance tests were performed on different plasticizers and the obtained PVC finished products in the above examples and comparative examples. […] Three points were selected for each group of samples, each point was tested once, and a median value was taken. • 2. […] Compatibility: tests were performed using a water value method. Since water molecules are polar, the compatibility between the plasticizer and water can characterize the compatibility between the plasticizer and polar materials (PVC, PLA, and nitrile rubber). When a certain plasticizer has good compatibility with water, it has good compatibility with PVC, and vice versa. In the experiment, 2.5 g of plasticizer and 25 g of acetone were added to a beaker, titrated with a burette filled with deionized water, and agitated while titrating until turbidity appears, and the volume of deionized water consumed was recorded. • 4. Glass transition temperature (Tg): the glass transition temperature was tested using a dynamic mechanical analyzer. Test conditions: nitrogen was taken as the carrier gas, at a test temperature range of -40 to 80°C, a heating rate of 3°C/min, and a frequency of 1 Hz.

[6] = Compatibility (water value method); conditions: 2.5 g plasticizer and 25 g acetone titrated with deionized water until turbidity; Table 5
Protocol: as §1

[7] = Hardness (Shore hardness tester, GB/T 531-2008); conditions: PVC plastic: 100 parts PVC resin, 35 parts plasticizer, 2 parts oxidized polyethylene wax, 5 parts octyltin maleate
Protocol: as §1, with “The PVC plastics include 100 parts of PVC resin, 35 parts of plasticizer, 2 parts of oxidized polyethylene wax, and 5 parts of octyltin maleate.” left out

[8] = Glass transition temperature (dynamic mechanical analyzer); conditions: PVC plastic with 35 parts plasticizer; -40 to 80°C, 3°C/min, 1 Hz
Protocol: as §1

SMILES | Residual amounts of fat-soluble pigments [1] [ppm] | Residual amounts of water-soluble pigments [1] [ppm] | Chromaticity [2] [Pt-Co] | Water content [3] [%] | Acid value [4] [KOH/g] | Elastic modulus [5] [MPa] | Elongation at break [5] [%] | Tensile modulus at 100% [5] [MPa] | Compatibility [6] [mL] | Hardness/Shore D [7] [Shore D] | Tg [8] [°C]
CCOC(=O)C=C(CC(=O)OCC)C(=O)OCC [Example 21, triethyl aconitate] | 385 | 328 | 30 | 0.02 | 0.05 | 135.5 | 243.6 | 15.8 | 18.4 | 43 | 28.2
CCCCOC(=O)C=C(CC(=O)OCCCC)C(=O)OCCCC [Example 27, tributyl aconitate] | 4650 | 415 | 200 | 0.05 | 0.05 | 166.7 | 230.3 | 17.3 | 12.4 | 45 | 28.5
CCCCOC(=O)CC(O)(CC(=O)OCCCC)C(=O)OCCCC [Comparative Example 5, tributyl citrate, reference compound] | 852 | 653 | 50 | 0.03 | 0.05 | 226.4 | 213.4 | 17.6 | 14.3 | 48 | 37.8
CCCCOC(=O)C=C(CC(=O)OCCCC)C(=O)OCCCC [Example 25, tributyl aconitate] | 865 | 454 | 50 | 0.03 | 0.05 | 156.4 | 226.5 | 17.2 | 12.7 | 45 | 28.2
CCCCOC(=O)C=C(CC(=O)OCCCC)C(=O)OCCCC [Example 28, tributyl aconitate] | 1658 | 408 | 40 | 0.04 | 0.05 | 88.5 | 248.6 | 15.2 | 14.4 | 42 | 28.6
CCCCOC(=O)C=C(CC(=O)OCCCC)C(=O)OCCCC [Example 24, tributyl aconitate] | 1386 | 420 | 60 | 0.02 | 0.05 | 131.0 | 242.7 | 15.7 | 13.1 | 43 | 28.6
CCCCOC(=O)C=C(CC(=O)OCCCC)C(=O)OCCCC [Comparative Example 1, tributyl aconitate, reference compound] | 16424 | 13861 | >500 | 0.03 | 0.05 | 192.2 | 223.2 | 17.9 | 10.8 | 46 | 30.7
CCCCOC(=O)C=C(CC(=O)OCCCC)C(=O)OCCCC [Example 29, tributyl aconitate] | 435 | 1302 | 60 | 0.03 | 0.05 | 92.6 | 251.6 | 15.4 | 14.9 | 42 | 28.8
CCCCOC(=O)C=C(CC(=O)OCCCC)C(=O)OCCCC [Example 31, tributyl aconitate] | 427 | 1715 | 60 | 0.03 | 0.05 | 157.6 | 231.5 | 17.2 | 12.5 | 45 | 29.6
CCCCOC(=O)C=C(CC(=O)OCCCC)C(=O)OCCCC [Example 35, tributyl aconitate] | 3475 | 5348 | 300 | 0.03 | 0.05 | 348.6 | 173.4 | 19.8 | 8.1 | 55 | 38.4
CCCCC(CC)COC(=O)C=C(CC(=O)OCC(CC)CCCC)C(=O)OCC(CC)CCCC (stereo not shown) [Example 20, tri(2-ethylhexyl) aconitate] | 634 | 610 | 30 | 0.05 | 0.05 | 301.6 | 181.6 | 19.7 | 10.7 | 54 | 42.5
